{
  "source": "patent US20230405132A1",
  "about": "“ANTITUMOR PHARMACEUTICAL COMPOSITION AND USE THEREOF” (JENKEM TECHNOLOGY CO., LTD. (TIANJIN), priority 2020, published 2023)",
  "key": {"SK-N-SH cells": {"system": "SK-N-SH cells", "test": "SK-N-SH subcutaneous tumor model in mice: tumor volume and tumor growth inhibition", "assay_type": "in vivo, mouse", "conditions": "for tumor inhibition rate: SK-N-SH subcutaneous tumor model; for Tumor volume, mean ± standard error: TMZ 20 mg/kg PO, irinotecan hydrochloride or PEG-irinotecan 30 mg/kg IV", "description": "SK-N-SH cells were cultured in an EMEM medium containing 10% heat-inactivated fetal bovine serum, 100 μg/mL penicillin, and 100 μg/mL streptomycin (incubator condition: 37° C., 5% CO 2). The cells were subcultured twice a week. The cells in the exponential phase were collected, and counted grafting.\n2.2 Tumor grafting and grouping 100 μL of a mixture of EMEM and 50% matrigel containing 5×10^6 SK-N-SH cells was grafted subcutaneously at the right abdomen of a mouse, and the tumor growth was observed. 80 animals were randomized according to tumor volume (103 mm 3) by using the grouping randomization method in Excel. […] Each group had 10 tumor-bearing mice.\nTumor volume was measured twice a week using a vernier caliper.\n(§1) The body weight and tumor volume were compared by using two-way ANOVA analysis. All data were analyzed using GraphPad Prism 5. p<0.05 indicates statistical significance."}, "[1]": {"test": "Body weight of tumor-bearing mice during treatment", "assay_type": "in vivo, mouse", "conditions": "TMZ 20 mg/kg PO, irinotecan hydrochloride or PEG-irinotecan 30 mg/kg IV", "description": "All procedures related to animal handling, care, and treatment in this study were performed according to the assessment of the Institutional Animal Care and Use Committee (IACUC) approved by Shanghai BioDuro Co., Ltd. (the CRO) and followed guidelines of the Association for Assessment and Accreditation of Laboratory Animal Care (AAALAC, accreditation number: 001516). In routine monitoring, the animals were examined that whether any adverse effects of tumor growth and/or treatment on normal behavior were present, such as motility, food and water consumption (by observation only), and body weight gain/loss (the body weight was measured twice a week during the pre-administration phase and daily during the administration phase), eye/hair matting and any other abnormalities.\nas §1"}},
  "note": "Counter-ions that a name gives are not always drawn.",
  "data": [
    {"smiles": "CCc1c2c(nc3ccc(OC(=O)N4CCC(N5CCCCC5)CC4)cc13)-c1cc3c(c(=O)n1C2)COC(=O)[C@]3(O)CC", "note": "[Irinotecan hydrochloride]", "values": [
      {"measurement": "1 − T/C (tumor inhibition rate TGI)", "setting": "SK-N-SH cells; D 34", "result": 30.99, "unit": "%"},
      {"measurement": "T/C (relative tumor proliferation rate)", "setting": "SK-N-SH cells; D 34", "result": 69.01, "unit": "%"},
      {"measurement": "tumor inhibition rate", "setting": "SK-N-SH cells", "result": 31.0, "unit": "%"},
      {"measurement": "Animal body weight, mean ± standard error", "setting": "[1]; day 24", "result": "22 ± 0.4", "unit": "g"},
      {"measurement": "Animal body weight, mean ± standard error", "setting": "[1]; day 27", "result": "21.8 ± 0.5", "unit": "g"},
      {"measurement": "Animal body weight, mean ± standard error", "setting": "[1]; day 31", "result": "23 ± 0.5", "unit": "g"},
      {"measurement": "Animal body weight, mean ± standard error", "setting": "[1]; day 34", "result": "24.3 ± 0.5", "unit": "g"},
      {"measurement": "Animal body weight, mean ± standard error", "setting": "[1]; day 38", "result": "23.2 ± 0.4 (n = 8) g"},
      {"measurement": "Animal body weight, mean ± standard error", "setting": "[1]; day 41", "result": "21 (n = 1) g"}
    ]},
    {"smiles": "Cn1nnc2c(C(N)=O)ncn2c1=O", "note": "[Temozolomide]", "values": [
      {"measurement": "1 − T/C (tumor inhibition rate TGI)", "setting": "SK-N-SH cells; D 34", "result": 25.04, "unit": "%"},
      {"measurement": "tumor inhibition rate", "setting": "SK-N-SH cells", "result": 25.0, "unit": "%"},
      {"measurement": "TV (b: Tumor volume on day 34)", "setting": "SK-N-SH cells; Table 5, day 34", "result": "1827.5 ± 262.2", "unit": "mm^3"},
      {"measurement": "Tumor volume, mean ± standard error", "setting": "SK-N-SH cells; day 27", "result": "462.9 ± 67.1", "unit": "mm^3"},
      {"measurement": "Tumor volume, mean ± standard error", "setting": "SK-N-SH cells; day 31", "result": "1071 ± 144.9", "unit": "mm^3"},
      {"measurement": "Tumor volume, mean ± standard error", "setting": "SK-N-SH cells; day 34", "result": "1827.5 ± 262.2 (n = 9) mm^3"},
      {"measurement": "Tumor volume, mean ± standard error", "setting": "SK-N-SH cells; day 38", "result": "2179.6 ± 209.6 (n = 5) mm^3"},
      {"measurement": "Tumor volume, mean ± standard error", "setting": "SK-N-SH cells; day 41", "result": "3004.1 ± 100.8 (n = 2) mm^3"},
      {"measurement": "Animal body weight, mean ± standard error", "setting": "[1]; day 24", "result": "21.7 ± 0.4", "unit": "g"},
      {"measurement": "Animal body weight, mean ± standard error", "setting": "[1]; day 27", "result": "21.5 ± 0.5", "unit": "g"},
      {"measurement": "Animal body weight, mean ± standard error", "setting": "[1]; day 31", "result": "22 ± 0.6", "unit": "g"},
      {"measurement": "Animal body weight, mean ± standard error", "setting": "[1]; day 34", "result": "23.7 ± 0.7 (n = 9) g"},
      {"measurement": "Animal body weight, mean ± standard error", "setting": "[1]; day 38", "result": "22.5 ± 0.5 (n = 5) g"},
      {"measurement": "Animal body weight, mean ± standard error", "setting": "[1]; day 41", "result": "23.3 ± 1.1 (n = 2) g"}
    ]}
  ]
}
